Among the data in ChEMBL document CHEMBL1150978, “Design and synthesis of cosalane, a novel anti-HIV agent” (Bioorg Med Chem Lett, 1993) are TI50, EC50 and IC50 values, retold here.

Experiment [1] relates to CEM-SS. Put plainly: Tested for the therapeutic index against CEM-SS cells of HIV-2 (NIH-D2). In kind it is functional, Homo sapiens.
The subject of experiment [2] is MT2. The experiment in a line: Tested for the antiviral activity against MT-2 cells infected with AZT resistant strain of HIV-1 (A012). The experiment is classed as functional, cell-based. Conditions: Homo sapiens.
Experiment [3] concerns CEM-SS. The experiment in a line: Tested for the inhibitory activity against CEM-SS cells. Conditions: Homo sapiens. The experiment is classed as functional, cell-based.
The test system of experiment [4] is CEM-SS. The experiment in a line: Tested for the therapeutic index against CEM-SS cells of HIV-1 (IIIb). In kind it is functional, Homo sapiens.
Experiment [5] is described as follows: Tested for the therapeutic index of production of viral antigen (p30) against Sc-1 cells of rauscher murine leukemia virus (R-Mul V). The experiment is classed as functional, Mus musculus.
Experiment [6] concerns MT2. Put plainly: Tested for the antiviral activity against MT-2 cells infected with AZT sensitive strain of HIV-1 (A012). In kind it is functional, cell-based. The settings on record: Homo sapiens.
For experiment [7], the system named is CEM-SS. Put plainly: Tested for the antiviral activity against CEM-SS cells infected with HIV-1 (RF); value ranges from 2-15. The experiment is classed as functional, cell-based. The settings on record: Homo sapiens.
Experiment [8] has as its system MT2. The experiment in a line: Tested for the inhibitory activity against MT-2 cells. The experiment is classed as functional, cell-based. The settings on record: Homo sapiens.
Experiment [9] concerns MT2. Put plainly: Tested for the therapeutic index against MT-2 cells of AZT resistant strain of HIV-1 (A012). The experiment is classed as functional, Homo sapiens.
Experiment [10] in a line: Tested for the antiviral activity against Sc-1 cells infected with rauscher murine leukemia virus (R-Mul V) by plaque assay in mouse. In kind it is functional, cell-based.
Experiment [11] in a line: Tested for the therapeutic index against Sc-1 cells of rauscher murine leukemia virus (R-Mul V) by plaque assay in mouse. In kind it is functional.
Experiment [12] deals with CEM-SS. Put plainly: Tested for the antiviral activity against CEM-SS cells infected with HIV-2 (NIH-D2). The experiment is classed as functional, cell-based. The settings on record: Homo sapiens.
Experiment [13] concerns MT4. The experiment in a line: Tested for the therapeutic index against MT-4 cells of HIV-1 (IIIb). The experiment is classed as functional, Homo sapiens.
Experiment [14] is described as follows: Tested for the inhibitory activity of production of viral antigen (p30) against Sc-1 cells of rauscher murine leukemia virus (R-Mul V). The experiment is classed as functional, cell-based. Conditions: Mus musculus.
A short description of experiment [15]: Tested for the antiviral activity of production of viral antigen (p30) against Sc-1 cells of rauscher murine leukemia virus (R-Mul V). The experiment is classed as functional, cell-based. Conditions: Mus musculus.
In experiment [16] the test system is MT2. Put plainly: Tested for the therapeutic index against MT-2 cells of AZT sensitive strain of HIV-1 (A012). The experiment is classed as functional, Homo sapiens.
Experiment [17] has as its system MT4. Put plainly: Tested for the antiviral activity against MT-4 cells infected with HIV (IIIb) strain resistant to non-nucleoside reverse transcriptase inhibitors. In kind it is functional, cell-based. The settings on record: Homo sapiens.
The subject of experiment [18] is CEM-SS. Put plainly: Tested for the therapeutic index against CEM-SS cells of HIV-1 (RF). In kind it is functional, Homo sapiens.
The test system of experiment [19] is MT4. Put plainly: Tested for the inhibitory activity against MT-4 cells. In kind it is functional, cell-based. The settings on record: Homo sapiens.
The nature of experiment [20]: Tested for the inhibitory activity against Sc-1 cells by plaque assay in mouse. In kind it is functional, cell-based.

With `CC(C)CCCC(C)[C@H]1CC[C@H]2[C@@H]3CCC4C[C@@H](CCC=C(c5cc(Cl)c(O)c(C(=O)O)c5)c5cc(Cl)c(O)c(C(=O)O)c5)CC[C@]4(C)[C@H]3CC[C@]12C` (stereo not given in full), the TI50 in the experiment with CEM-SS [1] is recorded as >60; in the experiment with CEM-SS [4], >100; in experiment [5], >4; with MT2 [9], 20; in experiment [11], >8; with MT4 [13] it was >15. Further, the figures for the TI50 with MT2 [16] and in the experiment on CEM-SS [18] were 25 and >20, respectively. The EC50 in the experiment on MT2 [2] was determined as 10 µM; in the experiment with MT2 [6], 8 µM; in the experiment with CEM-SS [7], 2000 nM; in experiment [10] it was 4 µM; in the experiment on CEM-SS [12], 5 µM; in experiment [15], 7 µM. Besides, the EC50 with MT4 [17] stood at 20 µM. Further, the IC50 in the experiment on CEM-SS [3] was > 300 µM; in the experiment with MT2 [8] it was 200 µM; in experiment [14], > 32 µM; in the experiment with MT4 [19] it was > 300 µM; in experiment [20], > 32 µM.

One may read the EC50 as the midpoint of the concentration-response curve. A high value points to lower potency in that assay. The term IC50 denotes the concentration that inhibits the measured activity by half.
